Experimental data as given in patent publication US12655116B2, “Substituted isophthalic acid diamides” (Bayer Aktiengesellschaft, priority 2020, dated 2026).

Experiments:
AMARE [1] = test: Post-emergence herbicidal action against AMARE; format: in vivo, Amaranthus retroflexus; conditions: 20 g/ha, visual assessment about 3 weeks after treatment, 100% = plants have died, 0% = like control plants
How it was run: (§1)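 Herbicidal action is a visual percentage rating (0% = as untreated control, 100% = plants dead) made roughly 3 weeks after treatment. Plants were grown in sandy loam in the greenhouse and treated at the one-leaf stage, 2 to 3 weeks post-sowing. Treatment was a foliar spray of wettable-powder or emulsion-concentrate formulations at 600 to 800 l/ha water plus 0.2% wetting agent.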

VIOTR [2] = test: Pre-emergence herbicidal action against VIOTR; format: in vivo, Viola tricolor
How it was run: (§2)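 Sandy loam pots, seeds covered with soil, then surface-treated with WP or EC formulations at 600–800 l/ha water plus 0.2% wetting agent. Greenhouse, 3 weeks. Percent damage vs untreated controls.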

PHBPU [3] = test: Pre-emergence herbicidal action against PHBPU; format: in vivo, Pharbitis purpurea; conditions: dosage 80 g/ha
How it was run: as §2

MATIN [4] = test: Pre-emergence herbicidal action against MATIN; format: in vivo, Matricaria inodora
How it was run: as §2

ECHCG [5] = test: Pre-emergence herbicidal action against ECHCG; format: in vivo, Echinochloa crus-galli; conditions: 80 g/ha
How it was run: as §2

VIOTR [6] = test: Post-emergence herbicidal action against VIOTR; format: in vivo, Viola tricolor
How it was run: as §1

ECHCG [7] = test: Post-emergence herbicidal action against ECHCG; format: in vivo, Echinochloa crus-galli
How it was run: as §1

ABUTH [8] = test: Pre-emergence herbicidal action against ABUTH; format: in vivo, Abutilon theophrasti; conditions: for Pre-emergence action against ABUTH (herbicidal activity): 80 g/ha, scored visually after 3 weeks vs untreated controls (100% = plants have died, 0% = like control plants); for Pre-emergence action against ABUTH (herbicidal activity in percent): dosage 20 g/ha, scored visually after 3 weeks vs untreated controls, 100% = plants have died, 0% = like control plants
How it was run: as §2

ALOMY [9] = test: Post-emergence herbicidal action against ALOMY; format: in vivo, Alopecurus myosuroides; conditions: dosage 20 g/ha, visual assessment about 3 weeks after treatment vs untreated controls
How it was run: as §1

SETVI [10] = test: Pre-emergence herbicidal action against SETVI; format: in vivo, Setaria viridis
How it was run: as §2

MATIN [11] = test: Post-emergence herbicidal action against MATIN; format: in vivo, Matricaria inodora; conditions: dosage 20 g/ha
How it was run: as §1

ABUTH [12] = test: Post-emergence herbicidal action against ABUTH; format: in vivo, Abutilon theophrasti; conditions: visual assessment about 3 weeks after treatment vs untreated controls
How it was run: as §1

PHBPU [13] = test: Post-emergence herbicidal action against PHBPU; format: in vivo, Pharbitis purpurea; conditions: dosage 20 g/ha
How it was run: as §1

ALOMY [14] = test: Pre-emergence herbicidal action against ALOMY; format: in vivo, Alopecurus myosuroides; conditions: 80 g/ha, pre-emergence, scored visually after 3 weeks vs untreated controls (100% = plants have died, 0% = like control plants)
How it was run: as §2

VERPE [15] = test: Post-emergence herbicidal action against VERPE; format: in vivo, Veronica persica; conditions: 20 g/ha
How it was run: as §1

AVEFA [16] = test: Post-emergence herbicidal action against AVEFA; format: in vivo, Avena fatua; conditions: 20 g/ha, visual assessment about 3 weeks after treatment, 100% = plants have died, 0% = like control plants
Method: Seeds of monocotyledonous and dicotyledonous weed and crop plants are laid out in sandy loam soil in wood-fiber pots, covered with soil and cultivated in a greenhouse under good growth conditions. 2 to 3 weeks after sowing, the test plants are treated at the one-leaf stage. The compounds of the invention, formulated in the form of wettable powders (WP) or as emulsion concentrates (EC), are then sprayed onto the green parts of the plants in the form of an aqueous suspension or emulsion at a water application rate equivalent to 600 to 800 l/ha, with addition of 0.2% wetting agent. After the test plants have been left to stand in the greenhouse under optimal growth conditions for about 3 weeks, the action of the preparations is assessed visually in comparison to untreated controls (herbicidal action in percent (%): 100% activity=the plants have died, 0% activity=like control plants). […] The tables below illustrate, in an illustrative manner, the post-emergence herbicidal action of the compounds of the invention, the herbicidal activity being stated in percent.

VERPE [17] = test: Pre-emergence herbicidal action against VERPE; format: in vivo, Veronica persica; conditions: dosage 80 g/ha
How it was run: as §2

AMARE [18] = test: Pre-emergence herbicidal action against AMARE; format: in vivo, Amaranthus retroflexus
How it was run: as §2

AVEFA [19] = test: Pre-emergence herbicidal action against AVEFA; format: in vivo, Avena fatua; conditions: for Pre-emergence action against AVEFA in %: 80 g/ha
How it was run: as §2

SETVI [20] = test: Post-emergence herbicidal action against SETVI; format: in vivo, Setaria viridis
How it was run: as §1

[21] = 20 g/ha, scored visually after 3 weeks vs untreated controls, 100% = plants have died, 0% = like control plants
[22] = 80 g/ha, scored visually after 3 weeks vs untreated controls (100% = plants have died, 0% = like control plants)

Row | Compound | Post-emergence action at 20 g/ha against AMARE in % (AMARE [1]) [%] | Pre-emergence action against VIOTR in % (VIOTR [2]; dosage 20 g/ha) [%] | Pre-emergence action against VIOTR in % (VIOTR [2]; dosage 80 g/ha) [%] | Pre-emergence action against PHBPU in % (PHBPU [3]) [%] | Pre-emergence action against MATIN in % (MATIN [4]; dosage 20 g/ha) [%] | Pre-emergence action against MATIN in % (MATIN [4]; dosage 80 g/ha) [%] | Pre-emergence action against ECHCG in % (ECHCG [5]) [%] | Post-emergence action against VIOTR in % (VIOTR [6]; 5 g/ha) [%] | Post-emergence action against VIOTR in % (VIOTR [6]; 20 g/ha) [%] | Post-emergence action against ECHCG in % (ECHCG [7]; dosage 5 g/ha) [%] | Post-emergence action against ECHCG in % (ECHCG [7]; dosage 20 g/ha) [%] | Pre-emergence action against ABUTH (herbicidal activity) (ABUTH [8]) [%] | Pre-emergence action against ABUTH (herbicidal activity in percent) (ABUTH [8]) [%] | Post-emergence action against ALOMY in % (ALOMY [9]) [%] | Pre-emergence action against SETVI in % (SETVI [10]; dosage 80 g/ha) [%] | Post-emergence action against MATIN in % (MATIN [11]) [%] | Post-emergence action against ABUTH in % (ABUTH [12]; dosage 20 g/ha) [%] | Post-emergence action against PHBPU in % (PHBPU [13]) [%] | Pre-emergence action against ALOMY (herbicidal activity) (ALOMY [14]) [%] | Post-emergence action against VERPE in % (VERPE [15]) [%] | further results
1 | CCn1nnnc1NC(=O)c1ccc(C(F)F)c(C(=O)NC(C)C2CC2)c1SC (stereo not shown) [Example 2-351] | 100 | 100 | 100 | 80 | 100 | 100 | 100 | 100 | 100 | 100 | 100 | 100 | 80 | 80 | 100 | 80 | 80 | 90 | 80 | 90 | Post-emergence action at 20 g/ha against AVEFA in % (AVEFA [16]): 80%; Pre-emergence action against VERPE in % (VERPE [17]): 100%; Pre-emergence action against AMARE in % (AMARE [18]; [21]): 100%; Pre-emergence action against AMARE in % (AMARE [18]; [22]): 100%; Pre-emergence action against AVEFA in % (AVEFA [19]): 80%
2 | CCn1nnnc1NC(=O)c1ccc(C(F)F)c(C(=O)NCC(F)F)c1SC [Example 2-92] | 100 | 90 | 100 | 90 | 100 | 100 | 100 | 100 | 100 | 80 | 100 | 100 | 100 | 80 | 100 | 80 | 90 | 90 | 90 | 90 | Pre-emergence action against SETVI in % (SETVI [10]; dosage 20 g/ha): 100%; Post-emergence action against ABUTH in % (ABUTH [12]; dosage 5 g/ha): 80%; Post-emergence action against SETVI in % (SETVI [20]; dosage 5 g/ha): 80%; Post-emergence action against SETVI in % (SETVI [20]; dosage 20 g/ha): 100%; Post-emergence action at 20 g/ha against AVEFA in % (AVEFA [16]): 80%; Pre-emergence action against VERPE in % (VERPE [17]): 100%; Pre-emergence action against AMARE in % (AMARE [18]; [21]): 100%; Pre-emergence action against AMARE in % (AMARE [18]; [22]): 100%; Pre-emergence action against AVEFA (AVEFA [19]; 20 g/ha, scored visually after 3 weeks, 100% = plants have died, 0% = like control plants): 80%; Pre-emergence action against AVEFA in % (AVEFA [19]): 80%
